26 compounds from patent publication US20230167073A1 (Teijin Pharma Limited, priority 2020, published 2023) can be followed below.

The target of the assay is T1, Human TRPC6 (Homo sapiens, UniProt Q9Y210).
T1 construct: expressed in transfected cells
T1 sequence (Q9Y210 1-931): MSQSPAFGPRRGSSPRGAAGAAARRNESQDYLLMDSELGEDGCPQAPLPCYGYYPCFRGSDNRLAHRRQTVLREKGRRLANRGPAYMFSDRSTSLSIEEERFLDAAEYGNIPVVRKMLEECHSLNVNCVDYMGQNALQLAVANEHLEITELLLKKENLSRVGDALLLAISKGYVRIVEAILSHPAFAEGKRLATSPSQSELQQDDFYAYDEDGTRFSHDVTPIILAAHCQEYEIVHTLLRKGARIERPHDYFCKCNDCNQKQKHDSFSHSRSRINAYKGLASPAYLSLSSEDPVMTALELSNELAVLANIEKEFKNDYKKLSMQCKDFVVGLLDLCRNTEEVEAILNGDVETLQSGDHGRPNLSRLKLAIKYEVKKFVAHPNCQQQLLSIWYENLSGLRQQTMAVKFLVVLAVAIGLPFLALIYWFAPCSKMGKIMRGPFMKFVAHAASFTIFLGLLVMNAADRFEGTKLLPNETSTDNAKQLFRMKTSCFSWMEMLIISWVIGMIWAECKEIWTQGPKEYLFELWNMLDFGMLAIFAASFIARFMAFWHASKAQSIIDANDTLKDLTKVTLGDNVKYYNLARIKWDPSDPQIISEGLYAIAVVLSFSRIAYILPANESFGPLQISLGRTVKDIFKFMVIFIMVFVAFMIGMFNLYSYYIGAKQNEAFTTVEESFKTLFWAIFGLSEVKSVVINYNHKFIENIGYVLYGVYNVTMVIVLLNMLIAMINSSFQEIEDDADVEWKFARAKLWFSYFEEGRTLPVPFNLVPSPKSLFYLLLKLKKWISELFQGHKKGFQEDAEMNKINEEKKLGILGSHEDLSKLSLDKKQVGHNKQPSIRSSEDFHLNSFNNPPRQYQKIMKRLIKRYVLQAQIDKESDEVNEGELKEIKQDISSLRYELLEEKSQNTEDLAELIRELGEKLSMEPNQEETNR
In words: Evaluation of TRPC6 channel inhibitory activity (1), FLIPR Calcium 5 Assay Kit, OAG stimulation (Compound Nos. 1-1293). The note with it: Human TRPC6 stably-expressing cells, OAG 30 μM, FLIPR Calcium 5 Assay Kit; read-out: Inhibitory activity (pIC50 class) (converted). It is filed as cell-based. The procedure, abridged:
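Cells stably expressing human TRPC6, plated 24 h before, were loaded 30 min with Calcium 5 dye plus probenecid in HEPES-HBSS. Compound was added 20 min before OAG (30 μM final) and fluorescence tracked on FLIPR. Inhibition normalised to no-compound and no-compound/no-OAG wells; pIC50 from four-parameter fit, reported as +/++/+++ categories.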
For the compound `Cn1nc(C2CC2)cc1Oc1cc(C#N)ccc1-c1cc(OCCCN)ccn1` [compound 585, 4-[4-(3-aminopropoxy)pyridin-2-yl]-3-(5-cyclopropyl-2-methylpyrazol-3-yl)oxybenzonitrile], the IC50 is greater than 1 µM.

In the case of `Cc1cc(Oc2cc(C#N)ccc2-c2ncc(CCN)cn2)cc(-c2ncccn2)n1` [compound 686, 4-[5-(2-aminoethyl)pyrimidin-2-yl]-3-(2-methyl-6-pyrimidin-2-ylpyridin-4-yl)oxybenzonitrile], the IC50 was greater than 1 µM.

For the compound `Cc1nc(Oc2cc(C#N)ccc2-c2ncc(CN)cn2)cc(N(C)C)n1` [compound 660, 4-[5-(aminomethyl)pyrimidin-2-yl]-3-[6-(dimethylamino)-2-methylpyrimidin-4-yl]oxybenzonitrile], the IC50 was greater than 1 µM.

With `Cn1nc(N2CCCC2)cc1Oc1cc(F)ccc1-c1ncc(CN)cn1` [compound 995, [2-[4-fluoro-2-(2-methyl-5-pyrrolidin-1-ylpyrazol-3-yl)oxyphenyl]pyrimidin-5-yl]methanamine], the IC50 is 0.01 to 1 µM.

For `Cc1nc(Oc2cc(C#N)ccc2-c2ccc(CCN)cc2)cc(N2CCCC(F)(F)C2)n1` [Compound 19, 4-[4-(2-aminoethyl)phenyl]-3-[6-(3,3-difluoropiperidin-1-yl)-2-methylpyrimidin-4-yl]oxybenzonitrile], the IC50 is 0.01 to 1 µM.

As to `Cn1nc(C2CC2)cc1Oc1cc(C#N)ccc1-c1cccc2c(N)noc12` [compound 594, 4-(3-amino-1,2-benzoxazol-7-yl)-3-(5-cyclopropyl-2-methylpyrazol-3-yl)oxybenzonitrile], the IC50 was greater than 1 µM. The same measure for `Cc1cc(Oc2cc(C#N)ccc2-n2cc(C(O)CN)cn2)cc(N2CCOCC2)n1` (centres unmarked) [Compound 241, 4-[4-(2-amino-1-hydroxyethyl)pyrazol-1-yl]-3-(2-methyl-6-morpholin-4-ylpyridin-4-yl)oxybenzonitrile]: less than 0.01 µM; for `Cn1nc(-c2cccnc2)cc1Oc1cc(C#N)ccc1-c1ccc(CCN)cn1` [Compound 179, 4-[5-(2-aminoethyl)pyridin-2-yl]-3-(2-methyl-5-pyridin-3-ylpyrazol-3-yl)oxybenzonitrile]: less than 0.01 µM; for `Cc1nc(Oc2cc(C#N)ccc2-n2cc(N3CCNCCC3=O)cn2)cc(C2CCCC2)n1` [Compound 210, 3-(6-cyclopentyl-2-methylpyrimidin-4-yl)oxy-4-[4-(7-oxo-1,4-diazepan-1-yl)pyrazol-1-yl]benzonitrile]: greater than 1 µM. Turning to `Cc1cc(Oc2cc(C#N)ccc2-c2ccc(CCCN)cc2)cc(N2CCOCC2)n1` [compound 578, 4-[4-(3-aminopropyl)phenyl]-3-(2-methyl-6-morpholin-4-ylpyridin-4-yl)oxybenzonitrile], the IC50 is 0.01 to 1 µM. The same measure for `Cc1nc(Oc2cc(C#N)ccc2-n2ccc(C(O)CN)n2)cc(N2CCOCC2)n1` (centres unmarked) [Compound 144, 4-[3-(2-amino-1-hydroxyethyl)pyrazol-1-yl]-3-(2-methyl-6-morpholin-4-ylpyrimidin-4-yl)oxybenzonitrile]: 0.01 to 1 µM. To `N#Cc1ccc(-c2ccc(CCN)nc2)c(Oc2cnnc(Cl)c2)c1` [Compound 76, 4-[6-(2-aminoethyl)pyridin-3-yl]-3-(6-chloropyridazin-4-yl)oxybenzonitrile] belongs greater than 1 µM; to `Cc1nc(Oc2cc(C#N)ccc2-c2ccc(CCN)nc2)cc(-c2ccc(F)cc2)n1` [Compound 190, 4-[6-(2-aminoethyl)pyridin-3-yl]-3-[6-(4-fluorophenyl)-2-methylpyrimidin-4-yl]oxybenzonitrile], 0.01 to 1 µM. On to `Cc1cc(Oc2cc(C#N)ccc2-c2ccc([C@H](O)CN)cn2)cc(N2CCCC2)n1` [compound 498, 4-[5-[(1S)-2-amino-1-hydroxyethyl]pyridin-2-yl]-3-(2-methyl-6-pyrrolidin-1-ylpyridin-4-yl)oxybenzonitrile], for which the IC50 is less than 0.01 µM. Consider `CN(C)c1cc(C(=O)c2cc(C#N)ccc2-c2ncc(CN)cn2)n(C)n1` [compound 1051, 4-[5-(aminomethyl)pyrimidin-2-yl]-3-[5-(dimethylamino)-2-methylpyrazole-3-carbonyl]benzonitrile], for which the IC50 was less than 0.01 µM.

Take `CCN(CC)c1cc(Cc2cc(C#N)ccc2-c2ncc(CCN)cn2)n(C)n1` [compound 1207, 4-[5-(2-aminoethyl)pyrimidin-2-yl]-3-[[5-(diethylamino)-2-methylpyrazol-3-yl]methyl]benzonitrile]: the IC50 is less than 0.01 µM. To `Cn1nc(C2CCC2)cc1Oc1cc(C#N)ccc1-c1ncc(C(O)CNCC#N)cn1` (centres unmarked) [Compound 281, 4-[5-[2-(cyanomethylamino)-1-hydroxyethyl]pyrimidin-2-yl]-3-(5-cyclobutyl-2-methylpyrazol-3-yl)oxybenzonitrile] belongs greater than 1 µM.

Regarding `N#Cc1ccc(-c2ccc(CCN)cn2)c(Oc2cc(N3CCOCC3)nc(C(F)(F)F)n2)c1` [Compound 148, 4-[5-(2-aminoethyl)pyridin-2-yl]-3-[6-morpholin-4-yl-2-(trifluoromethyl)pyrimidin-4-yl]oxybenzonitrile], the IC50 was 0.01 to 1 µM. The same measure for `CC(C)NC(=O)C(N)c1ccc(-c2ccc(C#N)cc2Oc2cc(C3CC3)nn2C)nc1` (centres unmarked) [compound 490, 2-amino-2-[6-[4-cyano-2-(5-cyclopropyl-2-methylpyrazol-3-yl)oxyphenyl]pyridin-3-yl]-N-propan-2-ylacetamide]: greater than 1 µM; for `Cc1nc(NCC2CCOCC2)cc(Oc2cc(C#N)ccc2-c2ncc(CN)cn2)n1` [compound 636, 4-[5-(aminomethyl)pyrimidin-2-yl]-3-[2-methyl-6-(oxan-4-ylmethylamino)pyrimidin-4-yl]oxybenzonitrile]: greater than 1 µM; for `N#Cc1ccc(-c2ccc(CCN)cn2)c(Oc2nnc(N3CCCC3)s2)c1` [compound 719, 4-[5-(2-aminoethyl)pyridin-2-yl]-3-[(5-pyrrolidin-1-yl-1,3,4-thiadiazol-2-yl)oxy]benzonitrile]: 0.01 to 1 µM.

Consider `Cn1nc(-c2ccccc2)cc1Oc1cc(C#N)ccc1-c1ccc(C(O)C(C)(C)N)cn1` (centres unmarked) [compound 301, 4-[5-(2-amino-1-hydroxy-2-methylpropyl)pyridin-2-yl]-3-(2-methyl-5-phenylpyrazol-3-yl)oxybenzonitrile], for which the IC50 was less than 0.01 µM. The same measure for `Cc1cc(Oc2cc(C#N)ccc2-c2ncc([C@H](O)CN)cn2)cc(N2CCCC2)n1` [compound 499, 4-[5-[(1S)-2-amino-1-hydroxyethyl]pyrimidin-2-yl]-3-(2-methyl-6-pyrrolidin-1-ylpyridin-4-yl)oxybenzonitrile]: less than 0.01 µM. The same measure for `Cc1nc(Oc2cc(C#N)ccc2-c2ccc(CCN)nc2)cc(-c2ccccn2)n1` [Compound 166, 4-[6-(2-aminoethyl)pyridin-3-yl]-3-(2-methyl-6-pyridin-2-ylpyrimidin-4-yl)oxybenzonitrile]: 0.01 to 1 µM; for `Cc1cc(Oc2cc(C#N)ccc2-c2ncc([C@H](O)CN)cn2)cc(N2CCOC(C)(C)C2)n1` [compound 532, 4-[5-[(1S)-2-amino-1-hydroxyethyl]pyrimidin-2-yl]-3-[2-(2,2-dimethylmorpholin-4-yl)-6-methylpyridin-4-yl]oxybenzonitrile]: less than 0.01 µM.

For `N#Cc1ccc(-c2ncc(CCN)cn2)c(Oc2nnc(C3CC3)s2)c1` [compound 728, 4-[5-(2-aminoethyl)pyrimidin-2-yl]-3-[(5-cyclopropyl-1,3,4-thiadiazol-2-yl)oxy]benzonitrile], the IC50 was 0.01 to 1 µM.
